Source: the METLIN SMRT retention time set (Domingo-Almenara et al. 2019)

Experiment: gradient 5% acetonitrile 3 min, to 50% in 2 min, to 85% in 15 min, held 3 min, 100 µL/min
Details: column: Zorbax Extend-C18 2.1 x 50 mm; eluents: water / acetonitrile, 0.1% formic acid
Method in brief: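 Each retention time is based on an adduct peak selected computationally and verified by manual inspection. Measurements used HPLC–quadrupole time-of-flight mass spectrometry in positive and negative ionization mode on mixtures of ~100 pure standards. Chromatography ran on a Zorbax Extend-C18 column (2.1 × 50 mm, 1.8 μm) at 100 μL/min with water and acetonitrile, each containing 0.1% formic acid, and dead and dwell volumes of 40 μL and 900 μL.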

Structure (SMILES)	RP-LC retention time
COC(=O)c1ncn2c1C(=O)N(Cc1ccccc1)C(C)(C(=O)NC1CCCCCC1)C2 (centres undefined)	777 s
COc1ccc2nc(NC3=NCN(CCc4ccc(OC)c(OC)c4)CN3)nc(C)c2c1	709 s
NC(=O)c1cnc(-c2ccccc2)n(CC(=O)Nc2ccccc2Br)c1=O	740 s
Cc1ccc(C(=O)Nc2ccc(-n3c(C)nc4ccccc4c3=O)cc2C)s1	821 s
CCC(C)NC(=O)CC1CCN(C(=O)c2[nH]c(C)c(C(=O)OC)c2C)CC1 (centres undefined)	663 s
COc1ccc(NC(=O)C2c3cc(OC)c(OC)cc3C(=O)N(C)C2c2cccnc2)cc1Cl (centres undefined)	660 s
COc1cc(OC)cc(C(=O)NCC(O)Cc2ccccc2)c1 (centres undefined)	706 s
CC(C)(C)n1nnnc1C1CC2(CCOCC2)C(=O)N1Cc1ccccc1 (centres undefined)	769 s
CCOc1ccc(-c2cn3ccn(-c4ccc(OC)cc4)c(=O)c3n2)cc1	830 s
Cc1cc(C)c(S(=O)(=O)N2CCc3c(c(-c4nnc(-c5ccccc5F)o4)nn3C)C2)cc1C	1070 s
N#Cc1cnc2nc(-c3ccccc3)nn2c1N	663 s
Cc1ccc(NC(=O)N2C[C@@H](F)C[C@H]2C(=O)N2CCc3ccccc3C2)cc1F	873 s
CCOC(=O)c1c(C)[nH]c(C(=O)N2CCC(CC(=O)NCc3cccnc3)CC2)c1C	608 s
O=C(NC1CCCCC1)c1nc(-c2ccncc2)cs1	660 s
COc1cccc(NC(=O)CSc2cc(N3CCN(c4ccccc4OC)CC3)ncn2)c1	938 s
O=C1CCN(C(=O)COc2ccc(Cl)cc2)c2ccccc2N1	691 s
CCC(Oc1ccc(=O)n(-c2ccc(F)cc2)n1)C(=O)NCCC(C)C (centres undefined)	804 s
CC(C)c1noc(-c2ccnc(-n3cnc(C(=O)NC4CCCCCC4)c3)c2)n1	771 s
CC(C)C(=O)Nc1c(C(=O)N2CCN(c3ccccn3)CC2)oc2ccccc12	649 s
Cc1cc(-c2nnc(-c3ccc(F)cc3)o2)c(C)n1CC(=O)NC(C)c1ccccc1 (centres undefined)	946 s
Cc1cccc(NC(=O)Cn2cnc3onc(C)c3c2=O)c1C	754 s
CC1(C)Cc2cccc(OCC(=O)N3CCN(CCn4cccn4)CC3)c2O1	583 s
CC(C)C(=O)NCC12CCCC=C1NC(=O)CC2 (centres undefined)	624 s

Structure (SMILES)	RP-LC retention time
Cc1cnn(Cc2nc(-c3ccc(NC(=O)c4ccco4)cc3)oc2C)c1	806 s
CN1CCc2nnc(C3CCCN3C(=O)Nc3ccc(Cl)cc3C(F)(F)F)n2CC1 (centres undefined)	594 s
CCC(C(=O)N1CCN(c2ccc3nnc(-c4ccco4)n3n2)CC1)c1ccccc1 (centres undefined)	727 s
O=C(Cc1csc(SCc2ccncc2)n1)NCc1ccc2c(c1)OCO2	568 s
CCn1cc(-c2nc(C(=O)Nc3cc(C)ccc3F)cs2)c2cccnc21	1240 s
COc1cccc(CNC(=O)c2cn(-c3cc(N4CCOCC4)ncn3)cn2)c1	752 s
Cc1ccc(C)c(N2C(=O)CN(S(C)(=O)=O)CC2(C)C(=O)NCc2ccc(F)cc2)c1 (centres undefined)	840 s
COc1ccc(-c2nc3ccc(C)cn3c2Nc2ccc3c(c2)OCCO3)cc1	692 s
Cc1cc(C(=O)Nc2nnc(Cc3ccc4c(c3)OCO4)o2)c(C)o1	722 s
O=C(N[C@H]1C[C@@H]2C[C@H]1CN2C(=O)Cc1ccc(OC(F)(F)F)cc1)c1cccs1	832 s
CC1=C(c2ccc(F)cc2)S(=O)(=O)N=C1N1CCCN(C(=O)C(C)(C)C)CC1	814 s
O=C(COc1ccccc1Br)Nc1nc(-c2ccccc2)cs1	1130 s
O=c1c(=O)n(-c2cccc(Cl)c2)ccn1Cc1nc(-c2ccc(F)cc2)no1	881 s
CCc1cccc(NS(=O)(=O)c2cc3n(c2)CCCN(CC)C3=O)c1	756 s
CC(C)c1noc(-c2cccnc2N2CCCN(C(=O)NCc3ccccc3)CC2)n1	920 s
CC(C)(C)c1ccc(-c2nc(NCCCN3CCOCC3)c3ccccc3n2)cc1	595 s
COc1ccc(NC(=O)c2c(C)oc3nc(C)nc(N4CCOCC4)c23)c(OC)c1	818 s
CCOC(=O)c1c(C)n(C)c2ccccc12	887 s
CCc1nc2cc(-c3noc(C4CC(=O)N(c5ccc(C)cc5)C4)n3)ccc2o1 (centres undefined)	987 s
COC(=O)c1cc(OCC(=O)NCc2ccc3c(c2)OCO3)c2ccccc2n1	739 s
COc1cc(NC(=O)Nc2nccn(-c3ccccc3)c2=O)cc(OC)c1	886 s
Cc1ccc2c(c1)N(S(C)(=O)=O)CCC(C(=O)Nc1ccc(F)c(F)c1)O2 (centres undefined)	960 s
CCn1cc(-c2nc(C)c(C(=O)NCc3ccccc3C)s2)c2cccnc21	995 s

Structure (SMILES)	RP-LC retention time
CN1c2cc(F)ccc2C(=O)NC12CCN(C(=O)NCCc1ccccc1)CC2	761 s
CS(=O)(=O)Nc1cccc(NC(=O)Cc2csc(NC(=O)c3ccsc3)n2)c1	676 s
O=S(=O)(Cc1ccc(Cl)cc1)N1CCC(n2c(-c3ccco3)nc3cccnc32)C1 (centres undefined)	927 s
CCc1ccccc1NC(=O)CSc1cc(N2CCN(c3ccc(OC)cc3)CC2)ncn1	1010 s
O=C(NCCN1CCN(c2ccc(Cl)cc2)CC1)C1CC1	576 s
COc1cccc(NC2=NS(=O)(=O)c3ccccc32)c1	732 s
CCn1c(=O)c(C)nc2cc(-c3noc(C4CC(=O)N(c5ccc(C)cc5)C4)n3)ccc21 (centres undefined)	884 s
N#Cc1cnn(-c2cccc(Cl)c2)c1-n1cccc1	1070 s
Cc1ncsc1CN1CCc2nn(Cc3ccccc3)c(=O)n2CC1	604 s
Cc1ccc(-c2nnc(-c3nc(NCc4ccco4)c4ccccc4n3)o2)cc1	995 s
COc1ccc(OC)c(NC(=O)N2CCC(c3cnn(-c4ccccc4)c3)CC2)c1	956 s
CCCN1CCN(S(=O)(=O)c2cc(-c3nnc(C4CCC4)o3)co2)CC1	622 s
Cc1ccc(NC(=O)Cn2nc3n(c2=O)CCCC3)cc1	640 s
O=C(C1CCCN(c2nnc3ccccn23)C1)N1CCN(c2ccccn2)CC1 (centres undefined)	514 s
CCCn1c(=O)c(C)nc2cc(-c3noc(C4CC(=O)N(C5CCCC5)C4)n3)ccc21 (centres undefined)	878 s
Cc1cccc(S(=O)(=O)N2CC3CN(C(=O)CC4CCCC4)CC(C2)O3)c1	890 s
CC(=O)Oc1ccc(C(=O)N2CCCc3ccccc32)cc1	904 s
Oc1ccc(Br)cc1-c1nc2ncccn2c1Nc1cccc(C(F)(F)F)c1	1080 s
COC(=O)CNC(=O)N1CCCC1c1ccc(C)cc1 (centres undefined)	739 s
Cc1oc(C2CCN(C(=O)Cc3ccccc3Cl)CC2)nc1C(=O)N1CCOCC1	716 s
Fc1cccc(Cn2cc(-c3noc(-c4ccccc4)n3)nn2)c1	986 s
COc1ccc(-c2nc(NC(=O)CSc3ccccc3)sc2CCC(=O)O)cc1	852 s
Cc1ccsc1C(=O)Nc1ccc(Cn2cncn2)cc1	695 s

Structure (SMILES)	RP-LC retention time
CCCC(=O)Nc1ccc2c(c1)CN(C(=O)c1ccc(F)cc1F)C(C(=O)N(C)C)C2 (centres undefined)	704 s
CS(=O)(=O)N1CCC(C(=O)NCc2ccccc2Cl)Oc2ccccc21 (centres undefined)	888 s
CCCNC(=O)Cn1c(C2CCCO2)nc2ccccc21 (centres undefined)	593 s
COc1ccc(CNC(=O)C2(C)CCCN(S(=O)(=O)c3ccc(Cl)cc3)C2)cc1 (centres undefined)	981 s
COc1cc(NC(=O)N2CCC(C)(C(=O)NCc3ccc(F)cc3)CC2)cc(OC)c1OC	737 s
COc1ccc(S(=O)(=O)N2CCCC(C(=O)NCCCO)C2)cc1C (centres undefined)	709 s
O=C(Cn1cnc2ccccc21)NCCNc1cc(-n2cccn2)ncn1	550 s
Cc1[nH]c2ccc(F)cc2c1CCNS(=O)(=O)c1ccc(F)cc1	865 s
Cc1c(CCC(=O)NCC2CCCO2)c(=O)n2nc(-c3ccccc3)nc2n1C (centres undefined)	668 s
COCC(=O)N(CC(=O)N1CCc2sccc2C1COc1ccc(C)cc1C)CC1CCCO1 (centres undefined)	929 s
O=C(CN1CCN(Cc2ccc(F)cc2Cl)C1=O)NCCCc1ccccc1	930 s
CC(C)c1cc(C(=O)Nc2ccc(C#N)cc2)nc2ccnn12	1030 s
CCOC(=O)N1CCC(Nc2c(C(=O)OC)c(=O)[nH]c3c(Cl)cccc23)CC1	731 s
Cc1ccc(CNC(=O)c2ccc3c(c2)CNCCO3)cc1	617 s
CCOc1ccc(-c2nc(Cc3noc(-c4ccccn4)n3)c(C)o2)cc1	966 s
CCn1c(=O)c(C)nc2cc(-c3noc(-c4cccc(Cl)c4)n3)ccc21	1220 s
Cc1ccc(CNS(=O)(=O)c2cc(-c3cc(C(F)(F)F)[nH]n3)sc2C)o1	964 s
Cn1nc(CN2CCOCC2)c2c1CCN(S(=O)(=O)c1cc(F)cc(F)c1)C2	642 s
Cc1ccc(S(=O)(=O)NCCc2cn(CC(C)C)c3ncccc23)cc1Cl	1070 s
CNC(=O)c1cc(COc2nnc(Nc3ccc(Cl)cc3)c3ccoc23)ccn1	749 s
